A word on the IC50: it is the point on the concentration scale where inhibition reaches its midpoint. A high value points to weaker potency.

The target in this assay is T1, hTDO2 (Homo sapiens, UniProt P48775).
T1 construct: endogenous in cells; host or cells: A172 human brain glioblastoma cells (ATCC CRL-1620)
T1 sequence (P48775 whole entry): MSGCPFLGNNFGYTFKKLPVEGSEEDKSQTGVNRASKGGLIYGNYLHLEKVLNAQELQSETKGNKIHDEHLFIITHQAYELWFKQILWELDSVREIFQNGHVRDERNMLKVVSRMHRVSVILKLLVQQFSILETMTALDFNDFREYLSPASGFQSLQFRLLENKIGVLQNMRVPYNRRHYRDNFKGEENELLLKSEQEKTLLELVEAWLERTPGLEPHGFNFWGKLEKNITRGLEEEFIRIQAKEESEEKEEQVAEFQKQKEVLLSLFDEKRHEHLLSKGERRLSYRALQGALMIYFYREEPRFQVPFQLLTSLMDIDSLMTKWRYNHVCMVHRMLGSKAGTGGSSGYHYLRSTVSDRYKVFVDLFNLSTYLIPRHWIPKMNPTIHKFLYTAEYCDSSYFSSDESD
As to the kind of experiment: Cellular assay for TDO2 activity determination in A172 cells. The assay is classed as cell-based. The settings on record: human glioblastoma A172 cells naturally expressing hTDO2; overnight incubation; kynurenine by absorbance at 480 nm. How it is done: The compounds of formula I inhibit the activity of human TDO2 in cells that constitutively express TDO2, such as A172 cells. A172 is a cell line derived from human brain glioblastoma cells. The cells are available from the American Type Culture Collection (ATCC®) as CRL-1620™.
The assay (adapted from Pilotte L et al., Proc Natl Acad Sci USA, 2012, 109(7), 2497-502) was performed in 96-well flat bottom plates seeded with human glioblastoma A172 cells, naturally expressing hTDO2 (prepared as described in Tilman et al., Mol Cancer, 2007, 17(6), 80), at a concentration of 1.25×10^4 cells/well in a final volume of 200 μL. To determine TDO, the cells were incubated overnight at 37° C. at 5% CO2 in IMDM (Invitrogen) supplemented with 2% FBS and 2% penicillin/streptomycin in the presence of the compounds of the present invention, at different concentrations.
The plates were then centrifuged 5 min at 1000 rpm, and 100 μL of the supernatant were collected in a conical plate, 30 μL of TCA 30% were added and a further centrifuged at 3000×g for 10 minutes. 100 μL of the supernatant were collected in a flat bottomed plate and 100 μL of 2% (w/v) 4-(dimethylamino)-benzaldehyde in acetic acid and incubated for 5 min at room temperature. Kynurenine concentrations were determined by measuring the absorbance at 480 nm. A standard curve was made with pure kynurenine. The TDO activity was measured as described above using ten serial concentrations of the compounds of the present invention. Data were fitted using the Prism™ software (GraphPad Software, Inc.) using standard parameters.
The biological activity of representative compounds in human brain glioblastoma cells as determined in the above-referenced assay is summarized in the following table: […]
Consider `CCOC(=O)NCCN1C(C)c2cc(-c3c[nH]c4cc(F)ccc34)ccc2S1(=O)=O` (single isomer, unassigned; (+)) [Example 110, (+)-ethyl (2-(5-(6-fluoro-1H-indol-3-yl)-3-methyl-1,1-dioxidobenzo[d]isothiazol-2(3H)-yl)ethyl)carbamate], for which 157 nM corresponded to half-maximal inhibition (IC50).
For `CNC(=O)CN1C(C)c2cc(-c3c[nH]c4cc(F)ccc34)ccc2S1(=O)=O` (single isomer, unassigned; (+)) [Example 112, (+)-2-(5-(6-fluoro-1H-indol-3-yl)-3-methyl-1,1-dioxidobenzo[d]isothiazol-2(3H)-yl)-Nmethylacetamide] the value was 142 nM.
For `CC1c2cc(-c3c[nH]c4cc(F)ccc34)ccc2S(=O)(=O)N1CC(=O)N(C)C` (single isomer, unassigned; (+)) [Example 114, (+) 2-(5-(6-fluoro-1H-indol-3-yl)-3-methyl-1,1-dioxidobenzo[d]isothiazol-2(3H)-yl)-N,N-dimethylacetamide] the value was 239 nM.
Next, `CC1c2cc(-c3c[nH]c4cc(F)ccc34)ccc2S(=O)(=O)N1CC(N)=O` (single isomer, unassigned; (+)) [Example 115]: 88 nM; `CC1c2cc(-c3c[nH]c4cc(F)ccc34)ccc2S(=O)(=O)N1CCN1CCOCC1` (single isomer, unassigned; (+)) [Example 118, (+)-5-(6-fluoro-1H-indol-3-yl)-3-methyl-2-(2-morpholinoethyl)-2,3-dihydrobenzo[d]isothiazole 1,1-dioxide]: 191 nM.
In turn, `CC1c2cc(-c3c[nH]c4cc(F)ccc34)ccc2S(=O)(=O)N1C1CCNC(=O)C1` (single isomer, unassigned; (+)) [Example 120] gave an IC50 of 91 nM.
For `CC1c2cc(-c3c[nH]c4cc(F)ccc34)ccc2S(=O)(=O)N1C1CCNC(=O)C1` (single isomer, unassigned; (+)) [Example 121, (+)-4-(-5-(6-fluoro-1H-indol-3-yl)-3-methyl-1,1-dioxidobenzo[d]isothiazol-2(3H)-yl)piperidin-2-one] the value was 348 nM; for `CC1c2cc(-c3c[nH]c4cc(F)ccc34)ccc2S(=O)(=O)N1C1CNC(=O)C1` (single isomer, unassigned; (+)) [Example 123, (+)4-(5-(6-fluoro-1H-indol-3-yl)-3-methyl-1,1-dioxidobenzo[d]isothiazol-2(3H)-yl)pyrrolidin-2-one], 501 nM; for `CC1c2cc(-c3c[nH]c4cc(F)ccc34)ccc2S(=O)(=O)N1C1CNC(=O)C1` (single isomer, unassigned; (+)) [Example 126, (+)-4-(5-(6-fluoro-1H-indol-3-yl)-3-methyl-1,1-dioxidobenzo[d]isothiazol-2(3H)-yl)pyrrolidin-2-one], 77 nM.
Next, `CNC(=O)CN1C(CO)c2cc(-c3c[nH]c4cc(F)ccc34)ccc2S1(=O)=O` (single isomer, unassigned; (+)) [Example 128, (+)-2-(5-(6-fluoro-1H-indol-3-yl)-3-(hydroxymethyl)-1,1-dioxidobenzo[d]isothiazol-2(3H)-yl)-N-methylacetamide]: 79 nM; `Cn1cnc(CN2C(CO)c3cc(-c4c[nH]c5cc(F)ccc45)ccc3S2(=O)=O)n1` (single isomer, unassigned; (+)) [Example 130, (+)-5-(6-fluoro-1H-indol-3-yl)-3-(hydroxymethyl)-2-((1-methyl-1H-1,2,4-triazol-3-yl)methyl)-2,3-dihydrobenzo[d]isothiazole 1,1-dioxide]: 112 nM.
`O=S1(=O)c2ccc(-c3c[nH]c4cc(F)ccc34)cc2C(CO)N1CCO` (single isomer, unassigned; (+)) [Example 131, (+)-5-(6-fluoro-1H-indol-3-yl)-2-(2-hydroxyethyl)-3-(hydroxymethyl)-2,3-dihydrobenzo[d]isothiazole 1,1-dioxide] displayed a 50% inhibitory concentration (IC50) of 182 nM.
In the case of `CC1c2cc(-c3c[nH]c4cc(F)ccc34)ccc2S(=O)(=O)N1CCc1n[nH]c(=O)o1` (single isomer, unassigned; (+)) [Example 134, (+)-5-(2-(5-(6-fluoro-1H-indol-3-yl)-3-methyl-1,1-dioxidobenzo[d]isothiazol-2 (3H)-yl)ethyl)-1,3,4-oxadiazol-2(3H)-one], the IC50 was determined as 53 nM.
`CNCC1NS(=O)(=O)c2ccc(-c3c[nH]c4cc(F)ccc34)cc21` (single isomer, unassigned; (+)) [Example 138, (+)-5-(6-fluoro-1H-indol-3-yl)-3-((methylamino)methyl)-2,3-dihydrobenzo[d]isothiazole 1,1-dioxide] registered an IC50 of 234 nM.
Take `CS(=O)(=O)NCC1NS(=O)(=O)c2ccc(-c3c[nH]c4cc(F)ccc34)cc21` (single isomer, unassigned; (+)) [Example 140, (+)-N-((5-(6-fluoro-1H-indol-3-yl)-1,1-dioxido-2,3-dihydrobenzo[d]isothiazol-3-yl)methyl)methanesulfonamide]: the 50% inhibitory concentration (IC50) is 285 nM.
Next, `O=S1(=O)c2ccc(-c3c[nH]c4cc(F)ccc34)cc2C(CO)N1CC(O)CO` (single isomer, unassigned; (+)) [Example 141, (+)-2-(2,3-dihydroxypropyl)-5-(6-fluoro-1H-indol-3-yl)-3-(hydroxymethyl)-2,3-dihydrobenzo[d]isothiazole 1,1-dioxide]: 830 nM.
Next, `O=S1(=O)c2ccc(-c3c[nH]c4cc(F)ccc34)cc2C(CO)N1CC(O)CO` (single isomer, unassigned; (+)) [Example 144, (+)-2-(2,3-dihydroxypropyl)-5-(6-fluoro-1H-indol-3-yl)-3-(hydroxymethyl)-2,3-dihydrobenzo[d]isothiazole 1,1-dioxide]: 190 nM; `CNC(=O)C(C)N1C(C)c2cc(-c3c[nH]c4cc(F)ccc34)ccc2S1(=O)=O` (single isomer, unassigned; (+)) [Example 146, (+)-2-(5-(6-fluoro-1H-indol-3-yl)-3-methyl-1,1-dioxidobenzo[d]isothiazol-2(3H)-yl)-N-methylpropanamide]: 54 nM; `CCC1NS(=O)(=O)c2ccc(-c3c[nH]c4cc(F)ccc34)cc21` (single isomer, unassigned; (-)) [Example 4, (−)-3-ethyl-5-(6-fluoro-1H-indol-3-yl)-2,3-dihydrobenzo[d]isothiazole 1,1-dioxide]: 272 nM.
Next, `CCCC1NS(=O)(=O)c2ccc(-c3c[nH]c4cc(F)ccc34)cc21` (single isomer, unassigned; (-)) [Example 7, (−)-5-(6-fluoro-1H-indol-3-yl)-3-propyl-2,3-dihydrobenzo[d]isothiazole 1,1-dioxide]: 1450 nM.
`CC(C)C1NS(=O)(=O)c2ccc(-c3c[nH]c4cc(F)ccc34)cc21` (single isomer, unassigned; (-)) [Example 9, (−)-5-(6-fluoro-1H-indol-3-yl)-3-isopropyl-2,3-dihydrobenzo-[d]isothiazole 1,1-dioxide]: the IC50 came out at 82 nM.
`O=S1(=O)NC(C2CC2)c2cc(-c3c[nH]c4cc(F)ccc34)ccc21` (single isomer, unassigned; (-)) [Example 11, (−)-3-cyclopropyl-5-(6-fluoro-1H-indol-3-yl)-2,3-dihydrobenzo[d]isothiazole 1,1-dioxide] came in with an IC50 of 103 nM.
Next, `O=S1(=O)NC(CO)c2cc(-c3c[nH]c4cc(F)ccc34)ccc21` (single isomer, unassigned; (-)) [Example 12, (−)-5-(6-fluoro-1H-indol-3-yl)-3-(hydroxymethyl)-2,3-dihydrobenzo[d]isothiazole 1,1-dioxide]: 74 nM; `NC(=O)C1NS(=O)(=O)c2ccc(-c3c[nH]c4cc(F)ccc34)cc21` (single isomer, unassigned; (-)) [Example 15, (−)-5-(6-fluoro-1H-indol-3-yl)-2,3-dihydrobenzo[d]-Isothiazole-3-carboxamide 1,1-dioxide]: 2070 nM.
Turning to `CNC(=O)C1NS(=O)(=O)c2ccc(-c3c[nH]c4cc(F)ccc34)cc21` (single isomer, unassigned; (-)) [Example 17, (−)-5-(6-fluoro-1H-indol-3-yl)-N-methyl-2,3-dihydrobenzo[d]isothiazole-3-carboxamide 1,1-dioxide], the half-inhibitory concentration (IC50) came to 10000 nM.
Next, `NCC1NS(=O)(=O)c2ccc(-c3c[nH]c4cc(F)ccc34)cc21` (single isomer, unassigned; (-)) [Example 20, (−)-3-(aminomethyl)-5-(6-fluoro-1H-indol-3-yl)-2,3-dihydrobenzo[d]isothiazole 1,1-dioxide]: 430 nM; `COC(=O)NCC1NS(=O)(=O)c2ccc(-c3c[nH]c4cc(F)ccc34)cc21` (single isomer, unassigned; (-)) [Example 21, (−)-methyl ((5-(6-fluoro-1H-indol-3-yl)-1,1-dioxido-2,3-dihydrobenzo[d]isothiazol-3-yl)methyl)carbamate]: 156 nM.

The values above are taken from patent publication US9873690B2, “3-indol substituted derivatives, pharmaceutical compositions and methods for use” (Pfizer Inc., priority 2015, dated 2018).
